One data set has as its system A549. In words: MTT cell viability (cytotoxicity) assay, A549. Type of data set: cell-based, human. Particulars: Homo sapiens; A549 cell line, estimated from cell viability values with Quest Graph IC50 Calculator; read-out: IC50 (concentration that inhibited cell survival to 50%). As to the method: (§1) Cells were cultured in indicated growth medium with 10% FBS and were maintained in a humidified incubator at 37° C. containing 5% CO2. Formula A2 compound was weighted and dissolved in DMSO/EtOH mixture solvent of 1/4 (v/v) ratio to a final concentration of 200 mM at the day of treatment. One day before treatment, cells at log-phase of growth were harvested, counted, and seeded in a 96-well plate at a density of 5×10^3 cells/[…]/well. After cultivation overnight, assumed wells were gently added with […] of fresh media prepared with the serial concentration from 40 to 1000 μM to bring the working concentration from 20 to 500 μM subsequently. The control plate without Formula A2 was carried out as the same procedure as above but […] of fresh media prepared with the equal solvent volume added. All plates were mixed gently and incubated for next 24 hours.
(§2) At the day of cell viability detection, tested wells were added […] of MTT working solution and incubated at 37° C. for 3 hours. Spectrophotometric absorbance readings were recorded at wavelength of 540 nm. Readings from blank wells (wells contains only cell culture medium without cells) and negative control wells (wells with cell and culture medium without Formula A2 and solvent treatment) were recorded and used for calibration. After all readings of OD540 subtracted the blank value, the percentage of cell viability were calculated using the following formula: […]
(§3) The concentration of Compound A that inhibited cell survival to 50% (IC50) was determined by an online tool “Quest Graph™ IC50 Calculator.” AAT Bioquest, Inc., 26 June. 2024, www.aatbio.com/tools/ic50-calculator.

The nature of data set [1]: MTT cell viability (cytotoxicity) assay, A549. The format is cell-based, human. Particulars: human, A549 cells. As to the method: as §1, §2, §3
Data set [2] can be described thus: MTT cell viability (cytotoxicity) assay, A549. Type of data set: cell-based. The note with it: human, A549 cells.
Data set [3] can be described thus: MTT cell viability (cytotoxicity) assay, PANC-1. The format is cell-based. The note with it: human, PANC-1 cells, mean of 6 wells. As to the method:
as §1, §2, §3

A short description of data set [4]: MTT cell viability (cytotoxicity) assay, Caco-2. Type of data set: cell-based. The note with it: human, mean of 6 wells. As to the method:
as §1, §2, §3

As a reminder, the viability is a read-out of living cells in per cent, often relative to untreated cells. Turning to `CC1=C(/C=C/C(C)=C/C=C/C(C)=C\C(=O)O)C(C)(C)CCC1` [13-cis retinoic acid, (2Z,4E,6E,8E)-3,7-dimethyl-9-(2,6,6-trimethylcyclohex-1-en-1-yl)nona-2,4,6,8-tetraenoic acid, reference compound], the IC50 in the data set on A549 was 518 µM. Moreover, the viability at 24 h, 30 μM in data set [1] (13-cis RA 30 μM) was found to be 75%. For the same compound, the viability at 24 h, 60 μM in data set [1] (13-cis RA 60 μM) is 73%. In data set [1] (13-cis RA 120 μM), the viability at 24 h, 120 μM was 57%. Besides, the viability at 24 h, 240 μM in data set [1] (13-cis RA 240 μM) was found to be 50%. Also, in data set [1] (13-cis RA 480 μM), the viability at 24 h, 480 μM came to 50%. In data set [2] (13-cis RA 7.5 μM), the viability at 24 h, 7.5 μM came to 95%. Further, in data set [2] (13-cis RA 15 μM), the viability at 24 h, 15 μM is 78%. Moreover, the viability at 24 h, 960 μM in data set [2] (13-cis RA 960 μM) is 51%.
For the compound `CC1=C(/C=C/C(C)=C/C=C/C(C)=C\C(=O)OC2=C(O)[C@@H]([C@@H](O)CO)OC2=O)C(C)(C)CCC1` [Formula A1], the IC50 in the data set with A549 was 197 µM. Further, the viability at 24 h, 20 μM came to 102% in data set [1] (Formula A1 20 μM, 24 hours, MTT, mean of 6 wells) and 69% in data set [3] (20 μM). Moreover, the viability at 24 h, 100 μM worked out at 100% in data set [1] (Formula A1 100 μM, 24 hours, MTT, mean of 6 wells) and 54% in data set [3] (100 μM). For the same compound, the viability at 24 h, 150 μM is 80% in data set [1] (Formula A1 150 μM, 24 hours, MTT, mean of 6 wells) and 50% in data set [3] (150 μM). The viability at 24 h, 180 μM in data set [1] (Formula A1 180 μM, 24 hours, MTT, mean of 6 wells) is 29%; in data set [3] (180 μM) it was 16%. Besides, the viability at 24 h, 230 μM is 63% in data set [1] (Formula A1 230 μM, 24 hours, MTT, mean of 6 wells) and 17% in data set [3] (230 μM). Also, the viability at 24 h, 253 μM in data set [1] (Formula A1 253 μM, 24 hours, MTT, mean of 6 wells) came to 28%; in data set [3] (253 μM), 19%. Also, the viability at 24 h, 500 µM in data set [1] (Formula A1 500 μM, 24 hours, MTT, mean of 6 wells) is 11%; in data set [3] (500 μM) it was 22%; in data set [4] (500 μM), 24%. Besides, the viability at 24 h, 50 μM stood at 69% in data set [3] (50 μM) and 94% in data set [2] (Formula A1 50 μM, 24 hours, MTT, mean of 6 wells). In data set [4] (200 μM), the viability at 24 h, 200 µM worked out at 91%. In data set [4] (300 μM), the viability at 24 h, 300 µM was 58%. For the same compound, the viability at 24 h, 400 µM in data set [4] (400 μM) is 33%.

The record behind these values is patent publication US20260001854A1, “CONJUGATE COMPOUND COMPRISING 13-CIS-RETINOIC ACID AND ASCORBIC ACID” (Mastery Biotech CO., LTD., priority 2023, published 2026).
